The text below walks through data of US4156724A, “N-acylamino-alpha-arylacetamido cephalosporins and antibacterial compositions and methods containing them” (Sumitomo Chemical Company, Limited, priority 1974, dated 1979).

Converted amounts (≈) assume the structure as drawn.

What all share (type): cell-based
Assay [1] concerns Escherichia coli NIHJ. Kind of assay: Minimum Inhibitory Concentration, Escherichia coli NIHJ. The settings on record: Escherichia coli NIHJ; read-out: Minimum Inhibitory Concentration. The method, then: (§1) anti-microbial activity tests were carried out on the compounds obtained in the Examples.
In assay [2] the test system is Pseudomonas aeruginosa 104. Description: Minimum Inhibitory Concentration, Pseudomonas aeruginosa 104. The following applies: Pseudomonas aeruginosa 104; read-out: Minimum Inhibitory Concentration. The method, then: as §1
In assay [3] the test system is Staphylococcus aureus FS 289. Description: Minimum Inhibitory Concentration, Staphylococcus aureus FS 289. The following applies: FS289; Staphylococcus aureus FS 289, strain resistant to penicillin; read-out: Minimum Inhibitory Concentration. As to the method: as §1
*Staphylococcus aureus FS 289: strain resistant to penicillin

For assay [4], the system named is Proteus vulgaris HX 19. Description: Minimum Inhibitory Concentration, Proteus vulgaris HX 19. The settings on record: HX19; Proteus vulgaris HX 19; read-out: Minimum Inhibitory Concentration. The method, then:
as §1

In assay [5] the test system is Enterobacter aerogeneus No. 75. Kind of assay: Minimum Inhibitory Concentration, Enterobacter aerogeneus No. 75. The following applies: Enterobacter aerogeneus No. 75; read-out: Minimum Inhibitory Concentration. As to the method:
as §1

Assay [6] relates to Staphylococcus aureus 209 P. Kind of assay: Minimum Inhibitory Concentration, Staphylococcus aureus 209 P. The settings on record: Staphylococcus aureus 209 P; read-out: Minimum Inhibitory Concentration. As to the method:
as §1

Assay [7] has as its system Serratia No. 72. Description: Minimum Inhibitory Concentration, Serratia No. 72. The method, then:
as §1

For assay [8], the system named is Klebsiella pneumoniae 602. Kind of assay: Minimum Inhibitory Concentration, Klebsiella pneumoniae 602. The following applies: Klebsiella pneumoniae, 602, Klebsiella pneumoniae 602; read-out: Minimum Inhibitory Concentration. As to the method: as §1

Consider `CNc1nnc(SCC2=C(C(=O)O)N3C(=O)C(NC(=O)[C@H](NC(=O)c4cnc5cccnc5c4O)c4ccc(O)cc4)C3SC2)s1` (some centres unmarked) [Example 152], for which the MIC in assay [1] came out at 3.13 µg/mL (≈ 4.6 µM); in assay [2], 3.13 µg/mL (≈ 4.6 µM); in assay [3], 6.25 µg/mL (≈ 9.18 µM); in assay [4], 0.2 µg/mL (≈ 0.294 µM); in assay [5], 6.25 µg/mL (≈ 9.18 µM); in assay [6], 0.78 µg/mL (≈ 1.15 µM). The MIC was determined as 12.5 µg/mL (≈ 18.4 µM) in assay [7] and 1.56 µg/mL (≈ 2.29 µM) in assay [8].
As for `CSc1ccc2ncc(C(=O)N[C@@H](C(=O)NC3C(=O)N4C(C(=O)O)=C(CSc5nnc(CN)s5)CSC34)c3ccc(O)cc3)c(O)c2n1` (some centres unmarked) [Example 153], the MIC in assay [1] was 3.13 µg/mL (≈ 4.31 µM); in assay [2], 6.25 µg/mL (≈ 8.6 µM); in assay [3], 6.25 µg/mL (≈ 8.6 µM); in assay [4] it was 0.39 µg/mL (≈ 0.537 µM); in assay [5], 6.25 µg/mL (≈ 8.6 µM); in assay [6] it was 0.78 µg/mL (≈ 1.07 µM). For the same compound, the MIC in assay [7] is 25 µg/mL (≈ 34.4 µM); in assay [8] it was 3.13 µg/mL (≈ 4.31 µM).
For the compound `Cn1nnnc1SCC1=C(C(=O)O)N2C(=O)C(NC(=O)[C@H](NC(=O)c3cnc4cncnc4c3O)c3ccc(O)cc3)C2SC1` (some centres unmarked) [Example 154], the MIC in assay [1] came out at 3.13 µg/mL (≈ 4.81 µM); in assay [2], 3.13 µg/mL (≈ 4.81 µM); in assay [3], 12.5 µg/mL (≈ 19.2 µM); in assay [4], 0.39 µg/mL (≈ 0.599 µM); in assay [5], 6.25 µg/mL (≈ 9.61 µM); in assay [6], 0.78 µg/mL (≈ 1.2 µM). Further, the MIC was 12.5 µg/mL (≈ 19.2 µM) in assay [7] and 6.25 µg/mL (≈ 9.61 µM) in assay [8].
For `O=C(O)C1=C(CSc2nnc(CO)s2)CSC2C(NC(=O)C(NC(=O)c3cnc4cncnc4c3O)c3cccc(O)c3)C(=O)N12` (centres unmarked) [Example 155], the MIC was found to be 3.13 µg/mL (≈ 4.58 µM) in assay [1]; 3.13 µg/mL (≈ 4.58 µM) in assay [2]; 12.5 µg/mL (≈ 18.3 µM) in assay [3]; 0.78 µg/mL (≈ 1.14 µM) in assay [4]; 6.25 µg/mL (≈ 9.15 µM) in assay [5]; 0.78 µg/mL (≈ 1.14 µM) in assay [6]. Further, the values for the MIC in assay [7] and in assay [8] were 12.5 µg/mL (≈ 18.3 µM) and 6.25 µg/mL (≈ 9.15 µM), respectively.
With `Cc1nnc(SCC2=C(C(=O)O)N3C(=O)C(NC(=O)C(NC(=O)c4cnc5nc(N(C)C)ncc5c4O)c4ccc(O)c(O)c4)C3SC2)s1` (centres unmarked) [Example 156], the MIC in assay [1] was determined as 6.25 µg/mL (≈ 8.61 µM); in assay [2] it was 6.25 µg/mL (≈ 8.61 µM); in assay [3], 12.5 µg/mL (≈ 17.2 µM); in assay [4], 0.78 µg/mL (≈ 1.07 µM); in assay [5], 12.5 µg/mL (≈ 17.2 µM); in assay [6] it was 1.56 µg/mL (≈ 2.15 µM). The MIC in assay [7] stood at 50 µg/mL (≈ 68.9 µM); in assay [8], 6.25 µg/mL (≈ 8.61 µM).
As to `COc1cc(C(NC(=O)c2cnc3cccnc3c2O)C(=O)NC2C(=O)N3C(C(=O)O)=C(CSc4nnc(CO)s4)CSC23)ccc1O` (centres unmarked) [Example 157], the MIC is 3.13 µg/mL (≈ 4.4 µM) in assay [1]; 6.25 µg/mL (≈ 8.78 µM) in assay [2]; 12.5 µg/mL (≈ 17.6 µM) in assay [3]; 0.2 µg/mL (≈ 0.281 µM) in assay [4]; 6.25 µg/mL (≈ 8.78 µM) in assay [5]; 1.56 µg/mL (≈ 2.19 µM) in assay [6]. In addition, the MIC in assay [7] was 25 µg/mL (≈ 35.1 µM); in assay [8], 3.13 µg/mL (≈ 4.4 µM).
On to `Cn1nnnc1SCC1=C(C(=O)O)N2C(=O)C(NC(=O)C(NC(=O)c3cnc4scnc4c3O)c3ccc(O)cc3)C2SC1` (centres unmarked) [Example 158], for which the MIC in assay [1] amounted to 6.25 µg/mL (≈ 9.53 µM); in assay [2], 6.25 µg/mL (≈ 9.53 µM); in assay [3], 12.5 µg/mL (≈ 19.1 µM); in assay [4] it was 0.39 µg/mL (≈ 0.595 µM); in assay [5] it was 12.5 µg/mL (≈ 19.1 µM); in assay [6] it was 0.39 µg/mL (≈ 0.595 µM). The MIC was found to be 25 µg/mL (≈ 38.1 µM) in assay [7] and 1.56 µg/mL (≈ 2.38 µM) in assay [8].
On to `Cn1nnnc1SCC1=C(C(=O)O)N2C(=O)C(NC(=O)C(NC(=O)c3cnc4sccc4c3O)c3ccc(O)cc3)C2SC1` (centres unmarked) [Example 159], for which the MIC in assay [1] worked out at 6.25 µg/mL (≈ 9.55 µM); in assay [2], 6.25 µg/mL (≈ 9.55 µM); in assay [3], 12.5 µg/mL (≈ 19.1 µM); in assay [4], 0.78 µg/mL (≈ 1.19 µM); in assay [5], 12.5 µg/mL (≈ 19.1 µM); in assay [6] it was 0.39 µg/mL (≈ 0.596 µM). Besides, the figures for the MIC in assay [7] and in assay [8] were 50 µg/mL (≈ 76.4 µM) and 3.13 µg/mL (≈ 4.78 µM), respectively.
`CSc1nc(O)c2c(O)c(C(=O)NC(C(=O)NC3C(=O)N4C(C(=O)O)=C(CSc5nnnn5C)CSC34)c3ccc(O)cc3)cnc2n1` (centres unmarked) [Example 160]: the MIC is 12.5 µg/mL (≈ 17.5 µM) in assay [1]; 12.5 µg/mL (≈ 17.5 µM) in assay [2]; 12.5 µg/mL (≈ 17.5 µM) in assay [3]; 1.56 µg/mL (≈ 2.19 µM) in assay [4]; 12.5 µg/mL (≈ 17.5 µM) in assay [5]; 0.78 µg/mL (≈ 1.09 µM) in assay [6]. Moreover, the MIC stood at 50 µg/mL (≈ 70.2 µM) in assay [7] and 6.25 µg/mL (≈ 8.77 µM) in assay [8].
For the compound `Cc1cc(C(NC(=O)c2cnc3cccnc3c2O)C(=O)NC2C(=O)N3C(C(=O)O)=C(CSc4ccc(O)nn4)CSC23)ccc1O` (centres unmarked) [Example 161], the MIC stood at 6.25 µg/mL (≈ 9.25 µM) in assay [1]; 6.25 µg/mL (≈ 9.25 µM) in assay [2]; 12.5 µg/mL (≈ 18.5 µM) in assay [3]; 0.39 µg/mL (≈ 0.577 µM) in assay [4]; 12.5 µg/mL (≈ 18.5 µM) in assay [5]; 0.78 µg/mL (≈ 1.15 µM) in assay [6]. Further, the values for the MIC in assay [7] and in assay [8] were 50 µg/mL (≈ 74 µM) and 3.13 µg/mL (≈ 4.63 µM), respectively.
